Results as given in the supplement of paper PMC10627819.

How the values were obtained:
S. pneumoniae D39V [1] = assay: fitness (endpoint OD595 vs no drug) (fraction); higher = more growth
Summary of the method: (§1)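 Fitness expresses the optical density reached at the stationary-phase transition as a fraction of the robust mean of no-drug control wells. It is capped at 1. Measurements were OD595 every 30 min for 14 h at 37 °C after inoculation of 384-well plates at OD595 0.01 (30 µl, or 55 µl for S. pneumoniae), minus the first reading.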

S. aureus DSM 20231 [2] = assay: as above
Summary of the method: as §1

B. subtilis 168 [3] = assay: as above
Summary of the method: as §1

S. pneumoniae D39V [4] = assay: Bliss interaction score (quartile over a dose matrix) (fitness difference); higher = more antagonism (negative = synergy)
Summary of the method: (§2)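 Each OD595 reading at entry into stationary phase was scaled to the robust mean of the untreated wells on its plate, with a ceiling of 1. These ratios define fitness, and single-drug fitness was inferred from combinations. The Bliss score compares observed fitness with the product-based expectation and is reported as quartiles across all replicate types, technical, biological and donor/recipient.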

S. aureus DSM 20231 [5] = assay: as above
Summary of the method: as §2

B. subtilis 168 [6] = assay: as above
Summary of the method: as §2

S. aureus Newman = assay: as above
Summary of the method: as §2
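Wherever Bliss interaction score (quartile over a dose matrix) is given: first quartile when negative (synergy) and third quartile when positive (antagonism).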
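Wherever fitness (endpoint OD595 vs no drug) is given: OD595 on entry to stationary phase over no-drug wells; at most 1.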

CCC[C@@H]1C[C@@H](C(=O)N[C@@H]([C@H]2O[C@H](SC)[C@H](O)[C@@H](O)[C@H]2O)[C@@H](C)O)N(C)C1 [Lincomycin] + COc1ccc(C[C@H](N)C(=O)N[C@H]2[C@@H](O)[C@H](n3cnc4c(N(C)C)ncnc43)O[C@@H]2CO)cc1 [Puromycin]
fitness, one replicate
Settings	first compound 0.1 µg/mL	first compound 0.2 µg/mL	first compound 0.4 µg/mL	first compound 0.8 µg/mL
S. aureus DSM 20231 [2], partner 3.12 µg/mL	0.822	0.489	0.207	–
S. aureus DSM 20231 [2], partner 6.24 µg/mL	0.282	0.217	0.093	–
S. pneumoniae D39V [1], partner 1 µg/mL	–	0.64	0.382	0.0776
S. pneumoniae D39V [1], partner 2 µg/mL	–	0.621	0.325	0.127
S. pneumoniae D39V [1], partner 4 µg/mL	–	0.275	0.083	0.0925

fitness
Settings	first compound 0.1 µg/mL	first compound 0.2 µg/mL	first compound 0.215 µg/mL	first compound 0.4 µg/mL	first compound 0.43 µg/mL	first compound 0.86 µg/mL
B. subtilis 168 [3], partner 0.39 µg/mL	0.867	0.869	–	0.854	–	–
B. subtilis 168 [3], partner 0.78 µg/mL	0.889	0.883	–	0.91	–	–
B. subtilis 168 [3], partner 1.56 µg/mL	0.873	0.866	–	0.843	–	–
S. aureus DSM 20231 [2], partner 0.39 µg/mL	0.877	0.806	–	0.304	–	–
S. aureus DSM 20231 [2], partner 0.78 µg/mL	0.935	0.776	–	0.303	–	–
S. aureus DSM 20231 [2], partner 1.56 µg/mL	0.906	0.759	–	0.253	–	–
S. pneumoniae D39V [1], partner 1 µg/mL	–	–	0.838	–	0.756	0.436
S. pneumoniae D39V [1], partner 2 µg/mL	–	–	0.792	–	0.709	0.3
S. pneumoniae D39V [1], partner 4 µg/mL	–	–	0.743	–	0.536	0.251

Settings	Bliss interaction score
B. subtilis 168 [6]	-0.0436
S. aureus DSM 20231 [5]	-0.0648
S. aureus Newman	0.0533
S. pneumoniae D39V [4]	-0.157

CCCCCCCCCC(=O)N[C@H]1[C@H](Oc2c3cc4cc2Oc2ccc(cc2Cl)[C@@H](O[C@@H]2O[C@H](CO)[C@@H](O)[C@H](O)[C@H]2NC(C)=O)[C@@H]2NC(=O)[C@H](NC(=O)[C@@H]4NC(=O)[C@H]4NC(=O)[C@@H](Cc5ccc(c(Cl)c5)O3)NC(=O)[C@H](N)c3ccc(O)c(c3)Oc3cc(O)cc4c3)c3ccc(O)c(c3)-c3c(O[C@H]4O[C@H](CO)[C@@H](O)[C@H](O)[C@@H]4O)cc(O)cc3[C@@H](C(=O)O)NC2=O)O[C@H](CO)[C@@H](O)[C@@H]1O [Teicoplanin] + COc1cc(Cc2cnc(N)nc2N)cc(OC)c1OC [Trimethoprim]
fitness, S. aureus DSM 20231 [2], main component drawn
Settings	partner 0.125 µg/mL	partner 0.25 µg/mL	partner 0.5 µg/mL	partner 1 µg/mL
first compound 0.1562 µg/mL	0.733	0.591	0.0778	0.0229
first compound 0.3125 µg/mL	0.798	0.61	0.0585	0.0126
first compound 0.625 µg/mL	0.708	–	0.0794	0.0061

main component drawn
Settings	Bliss interaction score
B. subtilis 168 [6]	-0.0836
S. aureus DSM 20231 [5]	-0.167
S. aureus Newman	-0.249
S. pneumoniae D39V [4]	-0.0668

COc1c(N2C[C@@H]3CCCN[C@@H]3C2)c(F)cc2c(=O)c(C(=O)O)cn(C3CC3)c12 [Moxifloxacin] + COc1cc(Cc2cnc(N)nc2N)cc(OC)c1OC [Trimethoprim]
one replicate
Settings	fitness
B. subtilis 168 [3], first compound 0.0312 µg/mL, partner 0.1 µg/mL	0.0166
B. subtilis 168 [3], first compound 0.0312 µg/mL, partner 0.2 µg/mL	0.0497
B. subtilis 168 [3], first compound 0.0312 µg/mL, partner 0.4 µg/mL	0.0325
B. subtilis 168 [3], first compound 0.0625 µg/mL, partner 0.1 µg/mL	0.0397
B. subtilis 168 [3], first compound 0.0625 µg/mL, partner 0.2 µg/mL	0.0393
B. subtilis 168 [3], first compound 0.0625 µg/mL, partner 0.4 µg/mL	0.011
B. subtilis 168 [3], first compound 0.125 µg/mL, partner 0.1 µg/mL	0.0162
B. subtilis 168 [3], first compound 0.125 µg/mL, partner 0.2 µg/mL	0.0361
B. subtilis 168 [3], first compound 0.125 µg/mL, partner 0.4 µg/mL	0.0203
B. subtilis 168 [3], first compound 2 µg/mL, partner 1 µg/mL	0.0073
B. subtilis 168 [3], first compound 2 µg/mL, partner 2 µg/mL	0.0287
B. subtilis 168 [3], first compound 4 µg/mL, partner 1 µg/mL	0.0329
B. subtilis 168 [3], first compound 4 µg/mL, partner 2 µg/mL	0.0297
B. subtilis 168 [3], first compound 8 µg/mL, partner 1 µg/mL	0.0126
B. subtilis 168 [3], first compound 8 µg/mL, partner 2 µg/mL	0.0291
S. aureus DSM 20231 [2], first compound 0.0075 µg/mL, partner 0.125 µg/mL	0.719
S. aureus DSM 20231 [2], first compound 0.015 µg/mL, partner 0.125 µg/mL	0.627
S. aureus DSM 20231 [2], first compound 0.06 µg/mL, partner 0.125 µg/mL	0.653
S. aureus DSM 20231 [2], first compound 0.06 µg/mL, partner 0.25 µg/mL	0.44
S. aureus DSM 20231 [2], first compound 0.06 µg/mL, partner 0.5 µg/mL	0.191
S. aureus DSM 20231 [2], first compound 0.12 µg/mL, partner 0.125 µg/mL	0.343
S. aureus DSM 20231 [2], first compound 0.12 µg/mL, partner 0.25 µg/mL	0.139
S. aureus DSM 20231 [2], first compound 0.12 µg/mL, partner 0.5 µg/mL	0.0509

fitness
Settings	partner 0.125 µg/mL	partner 0.25 µg/mL	partner 0.5 µg/mL	partner 1 µg/mL
B. subtilis 168 [3], first compound 0.0312 µg/mL	0.0627	0.103	0.0656	–
B. subtilis 168 [3], first compound 0.0625 µg/mL	0.0366	0.0436	0.0539	–
B. subtilis 168 [3], first compound 0.125 µg/mL	0.0399	0.0294	0.0335	–
B. subtilis 168 [3], first compound 2 µg/mL	–	–	0.0293	–
B. subtilis 168 [3], first compound 4 µg/mL	–	–	0.0245	–
B. subtilis 168 [3], first compound 8 µg/mL	–	–	0.0127	–
S. aureus DSM 20231 [2], first compound 0.0075 µg/mL	–	0.559	0.0549	0.0253
S. aureus DSM 20231 [2], first compound 0.015 µg/mL	–	0.525	0.0366	0.0226
S. aureus DSM 20231 [2], first compound 0.03 µg/mL	0.552	0.376	0.041	0.0152

Settings	Bliss interaction score
B. subtilis 168 [6]	0.0283
S. aureus DSM 20231 [5]	-0.0854
S. aureus Newman	-0.193
S. pneumoniae D39V [4]	0.0963

O=C(O[C@@H]1Cc2c(O)cc(O)cc2O[C@@H]1c1cc(O)c(O)c(O)c1)c1cc(O)c(O)c(O)c1 [EGCG] + COc1cc(Cc2cnc(N)nc2N)cc(OC)c1OC [Trimethoprim]
fitness
Settings	partner 0.125 µg/mL	partner 0.25 µg/mL	partner 0.5 µg/mL	partner 1 µg/mL
B. subtilis 168 [3], first compound 6.25 µg/mL	0.611	–	0.508	–
B. subtilis 168 [3], first compound 12.5 µg/mL	0.363	0.426	0.41	–
B. subtilis 168 [3], first compound 25 µg/mL	0.232	–	0.244	–
S. aureus DSM 20231 [2], first compound 12.5 µg/mL	0.621	0.544	0.338	0.0444
S. aureus DSM 20231 [2], first compound 25 µg/mL	0.675	0.541	0.3	0.0338
S. aureus DSM 20231 [2], first compound 50 µg/mL	0.71	0.588	0.292	0.0285

fitness, B. subtilis 168 [3], one replicate
Settings	partner 0.1 µg/mL	partner 0.2 µg/mL	partner 0.4 µg/mL	partner 1 µg/mL	partner 2 µg/mL
first compound 6.25 µg/mL	0.856	0.624	0.464	0.346	0.485
first compound 12.5 µg/mL	0.438	0.252	0.235	0.127	0.13
first compound 25 µg/mL	0.199	0.102	0.0997	0.0869	0.0586

Settings	Bliss interaction score
B. subtilis 168 [6]	-0.0682
S. aureus DSM 20231 [5]	0.0729
S. aureus Newman	0.115
S. pneumoniae D39V [4]	0.12
